# From patent US7199154B2, “Nitric oxide releasing prodrugs of diaryl-2-(5h)-furanones as cyclooxygenase-2 inhibitors” (Merck Frosst Company, priority 2002, dated 2007)
# Key:
# Paw Edema = test: Rat paw edema assay (carrageenan); format: in vivo; conditions: male Sprague-Dawley rats, 3 hr after carrageenan
# Protocol: Male Sprague-Dawley rats (150–200 g) are fasted overnight and are given p.o., either vehicle (1% methocell) or a test compound in the morning. One hr later, a line drawn using a permanent marker at the level above the ankle in one hind paw to define the area of the paw to be monitored. The paw volume (VOh) is measured using a plethysmometer (Ugo-Basile, Italy) based on the principle of water displacement. The animals are then injected subplantarly with 50 ul of a 1% carrageenan solution in saline (sigma Chem) into the paw using an insulin syringe with a 25-gauge needle (i.e. 500 ug carrageenan per paw). Three hr later, the paw volume (V3h) is measured and the increases in paw volume (V3h−VOh) are calculated. Paw edema data are the compared with the vehicle-control group and percent inhibitions calculated taking the values in the control group as 100%. All treatment groups are coded to eliminate observer bias.
# microsomal human COX-1 = target: T1, microsomal human COX-1 (Homo sapiens, UniProt P23219); test: Microsomal cyclooxygenase assay, COX-1; format: biochemical; conditions: microsomal fraction, PGE2 by EIA; read-out: IC50 against microsomal human COX-1
# T1 construct: from which microsomes are prepared for microsomal assays, are human osteosarcoma 143 cells; endogenous in cells; host or cells: human U-937 cells (microsomal fraction)
# Protocol: (§1) Compounds are tested as inhibitors of cyclooxygenase activity in whole cell and microsomal cyclooxygenase assays. Both of these assays measure prostaglandin E2 (PGE2) synthesis in response to arachidonic acid, using a radioimmunoassay. Cells used for whole cell assays, and from which microsomes are prepared for microsomal assays, are human osteosarcoma 143 cells (which specifically express cyclooxygenase-2) and human U-937 cells (which specifically express cyclooxygenase-1). In these assays, 100% activity is defined as the difference between prostaglandin E2 synthesis in the absence and presence of arachidonate addition. IC50 values represent the concentration of putative inhibitor required to return PGE2 synthesis to 50% of that obtained as compared to the uninhibited control.
# (§2) Cox microsomal fractions are prepared as previously described (Percival et al., Arch. Biochem. Biophys. (1994) 315:111–118). The enzyme reactions are performed in 50 mM KPi pH 8.0, 1 μM heme, 1 mM phenol supplemented with 10 μg/ml of each Cox-1 or Cox-2 microsomal fractions. 1 μl DMSO or test compound (100 fold stock concentrated in DMSO) are added to 100 μl buffer. The enzyme reaction is initiated 15 minutes later by the addition of 10 μl of 100 μM arachidonic acid. […] PGE2 levels are then determined by EIA (Assay Designs) using the manufacturer's instruction.
# microsomal human COX-2 = target: T2, microsomal human COX-2 (Homo sapiens, UniProt P35354); test: Microsomal cyclooxygenase assay, COX-2; format: biochemical; conditions: microsomal fraction, PGE2 by EIA; read-out: IC50 against microsomal human COX-2
# T2 construct: from which microsomes are prepared for microsomal assays, are human osteosarcoma 143 cells; endogenous in cells; host or cells: human osteosarcoma 143 cells (microsomal fraction)
# T2 sequence (P35354 18-604): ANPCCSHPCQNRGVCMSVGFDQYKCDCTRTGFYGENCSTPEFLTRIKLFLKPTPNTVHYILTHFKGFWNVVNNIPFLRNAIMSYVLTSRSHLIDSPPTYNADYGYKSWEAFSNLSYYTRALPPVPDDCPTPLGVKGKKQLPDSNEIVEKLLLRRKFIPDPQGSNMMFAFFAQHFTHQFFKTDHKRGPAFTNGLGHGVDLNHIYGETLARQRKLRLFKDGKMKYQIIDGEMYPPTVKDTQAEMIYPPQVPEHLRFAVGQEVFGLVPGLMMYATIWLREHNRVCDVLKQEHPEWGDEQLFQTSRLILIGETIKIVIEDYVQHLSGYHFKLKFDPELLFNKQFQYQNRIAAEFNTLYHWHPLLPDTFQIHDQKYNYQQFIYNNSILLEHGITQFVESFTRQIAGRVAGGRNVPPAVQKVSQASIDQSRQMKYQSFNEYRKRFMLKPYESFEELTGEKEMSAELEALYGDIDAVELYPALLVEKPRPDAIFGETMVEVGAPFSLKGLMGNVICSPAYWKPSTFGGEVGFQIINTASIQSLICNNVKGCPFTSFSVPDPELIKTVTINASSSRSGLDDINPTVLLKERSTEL
# Protocol: as §1, §2
# T1 sequence (P23219 24-599): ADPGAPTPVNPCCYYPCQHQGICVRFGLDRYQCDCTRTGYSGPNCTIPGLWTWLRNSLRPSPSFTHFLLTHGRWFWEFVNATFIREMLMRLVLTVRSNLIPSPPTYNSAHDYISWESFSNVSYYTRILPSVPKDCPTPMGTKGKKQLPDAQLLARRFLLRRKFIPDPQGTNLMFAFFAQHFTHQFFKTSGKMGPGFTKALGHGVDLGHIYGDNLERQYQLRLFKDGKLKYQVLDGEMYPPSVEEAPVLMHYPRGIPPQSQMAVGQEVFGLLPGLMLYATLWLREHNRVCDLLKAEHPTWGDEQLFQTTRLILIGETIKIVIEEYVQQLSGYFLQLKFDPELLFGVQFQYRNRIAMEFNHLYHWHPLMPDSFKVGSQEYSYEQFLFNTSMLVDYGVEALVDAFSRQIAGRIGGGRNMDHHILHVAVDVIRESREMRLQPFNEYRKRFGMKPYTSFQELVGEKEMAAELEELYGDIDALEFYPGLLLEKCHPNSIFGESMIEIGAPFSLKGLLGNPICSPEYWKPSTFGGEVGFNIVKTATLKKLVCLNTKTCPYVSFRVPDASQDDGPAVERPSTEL
IC50 (microsomal human COX-1) [µM],IC50 (microsomal human COX-2) [µM],SMILES,Paw Edema (% inhibition) (Paw Edema; dose 1 mg/kg p.o.) [%],Paw Edema (% inhibition) (Paw Edema; dose 3 mg/kg p.o.) [%],Paw Edema (% inhibition) (Paw Edema; dose 10 mg/kg p.o.) [%],Paw Edema (% inhibition) (Paw Edema; dose 30 mg/kg p.o.) [%]
,,"COC(=O)/C(=C(\COC(=O)OCCCCO[N+](=O)[O-])c1ccc(S(C)(=O)=O)cc1)c1ccccc1 [Example 3, methyl (2Z)-3-[4-(methylsulfonyl)phenyl]-4-({[4-(nitrooxy)butoxy]carbonyl}oxy)-2-phenylbut-2-enoate]",42,51,68,79
> 100,> 100,"CCOC(=O)/C(=C(\COC(=O)OCCCCCCO[N+](=O)[O-])c1ccc(S(C)(=O)=O)cc1)c1ccccc1 [Example 9, Ethyl (2Z)-3-[4-(methylsulfonyl)phenyl]-4-[({[6-(nitrooxy)hexyl]oxy}carbonyl)oxy]-2-phenylbut-2-enoate]",,,,
